The assay has as its system Endogenous Huntingtin Protein. In words: Endogenous Huntingtin Protein Assay (ELISA-based MSD electrochemiluminescence). In kind it is cell-based. The settings on record: Table 1. Summed up:
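Huntingtin was captured overnight at 4 °C on plates coated with 1 μg/mL MW1 (polyQ-expanded) or MAB2166 antibody and BSA-blocked. Detection used a rabbit monoclonal and then a SULFO-TAG goat anti-rabbit antibody (0.25 μg/mL, 1 h each, room temperature). Signal was read by electrochemiluminescence.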
Consider `Cc1cn2cc(-c3ncc4nc(N(C)C5C[C@H]6CCC[C@@H](C5)N6)sc4n3)cc(C#N)c2n1` (stereo partly drawn) [Compound 256, 6-{2-[(1R,5S)-9-azabicyclo[3.3.1]non-3-yl(methyl)amino][1,3]thiazolo[5,4-d]pyrimidin-5-yl}-2-methylimidazo[1,2-a]pyridine-8-carbonitrile], for which the IC50 is at most 100 nM.
Turning to `CN[C@H]1CC[C@@H](N(C)c2nc3nnc(-c4ccc(-c5cn[nH]c5)cc4O)cc3s2)CC1` [Compound 345, 2-(6-{methyl[(1s,4s)-4-(methylamino)cyclohexyl]amino}[1,3]thiazolo[4,5-c]pyridazin-3-yl)-5-(1H-pyrazol-4-yl)phenol], the IC50 fell in the range of 100 to 500 nM.
For `Cc1nc2ccc(-c3ccc4nc(C5CCNCC5)sc4c3)cc2o1` [Compound 112, 2-methyl-6-[2-(piperidin-4-yl)-1,3-benzothiazol-6-yl]-1,3-benzoxazole] the value was 100 to 500 nM.
For `CN(c1nc2ccc(-c3cc(C(F)(F)F)c4nn(C)cc4c3)cc2s1)C1CC(C)(C)NC(C)(C)C1` [Compound 51, N-methyl-6-[2-methyl-7-(trifluoromethyl)-2H-indazol-5-yl]-N-(2,2,6,6-tetramethylpiperidin-4-yl)-1,3-benzothiazol-2-amine] the value was 100 to 500 nM; for `Cc1cn2nc(-c3cc(F)c4nc(C5CCN(C)CC5)sc4c3)cc(C)c2n1` [Compound 107, 6-[4-fluoro-2-(1-methylpiperidin-4-yl)-1,3-benzothiazol-6-yl]-2,8-dimethylimidazo[1,2-b]pyridazine], at most 100 nM.
Turning to `Cc1cn2nc(-c3cc(F)c4nc(N5CCNC6(CC6)C5)sc4c3)cc(C)c2n1` [Compound 125, 6-[2-(4,7-diazaspiro[2.5]oct-7-yl)-4-fluoro-1,3-benzothiazol-6-yl]-2,8-dimethylimidazo[1,2-b]pyridazine], the 50% inhibitory concentration (IC50) was 100 to 500 nM.
To `C[C@@H]1C[C@@H](N(C)c2nc3nnc(-c4ccc(-c5cn[nH]c5)cc4O)cc3s2)CCN1C` [Compound 397, 2-(6-{[(2R,4S)-1,2-dimethylpiperidin-4-yl](methyl)amino}[1,3]thiazolo[4,5-c]pyridazin-3-yl)-5-(1H-pyrazol-4-yl)phenol] belongs at most 100 nM; to `Cc1nc2ccc(-c3ccc4nc(N(C)C5CC(C)(C)NC(C)(C)C5)sc4c3)nn2n1` [Compound 48, N-methyl-6-(2-methyl[1,2,4]triazolo[1,5-b]pyridazin-6-yl)-N-(2,2,6,6-tetramethylpiperidin-4-yl)-1,3-benzothiazol-2-amine], 100 to 500 nM.
To `Cc1cn2cc(-c3cc4sc(OC5CC(C)(C)NC(C)(C)C5)nc4cn3)cc(F)c2n1` [Compound 310, 6-(8-fluoro-2-methylimidazo[1,2-a]pyridin-6-yl)-2-[(2,2,6,6-tetramethylpiperidin-4-yl)oxy][1,3]thiazolo[4,5-c]pyridine] belongs at most 100 nM.
For `Cc1cn2cc(-c3ccc4nc(N(C)C5CC(C)(C)NC(C)(C)C5)sc4c3)cc(C)c2n1` [Compound 33, 6-(2,8-dimethylimidazo[1,2-a]pyridin-6-yl)-N-methyl-N-(2,2,6,6-tetramethylpiperidin-4-yl)-1,3-benzothiazol-2-amine] the value was at most 100 nM; for `CN(c1nc2ccc(-c3cc(C4CC4)c4nn(C)cc4c3)cc2s1)C1CC(C)(C)NC(C)(C)C1` [Compound 80, 6-(7-cyclopropyl-2-methyl-2H-indazol-5-yl)-N-methyl-N-(2,2,6,6-tetramethylpiperidin-4-yl)-1,3-benzothiazol-2-amine], 1000 to 3000 nM; for `Oc1cc(-c2cn[nH]c2)ccc1-c1cc2sc(N3CCC34CCNCC4)nc2nn1` [Compound 354, 2-[6-(1,7-diazaspiro[3.5]nonan-1-yl)[1,3]thiazolo[4,5-c]pyridazin-3-yl]-5-(1H-pyrazol-4-yl)phenol], at most 100 nM.
Consider `Cn1cc2cc(-c3nc4ncc(C5=CCNCC5)cc4s3)ccc2n1` [Compound 19, 2-(2-methyl-2H-indazol-5-yl)-6-(1,2,3,6-tetrahydropyridin-4-yl)[1,3]thiazolo[4,5-b]pyridine], for which the IC50 lay within 100 to 500 nM.
To `CC1CC(c2nc3ccc(-c4ccc5nn(C)cc5c4)cc3s2)CCN1` (stereo not drawn) [Compound 58, 6-(2-methyl-2H-indazol-5-yl)-2-(2-methylpiperidin-4-yl)-1,3-benzothiazole] belongs 500 to 1000 nM; to `Cc1cn2cc(-c3cc4sc(N(C)[C@H]5C[C@]6(C)CC[C@@](C)(N6)[C@H]5F)nc4cn3)cc(F)c2n1` [Compound 326], at most 100 nM; to `CN(c1nc2cnc(-c3ccc(-c4cn[nH]c4)cc3O)nc2s1)C1CC(C)(C)NC(C)(C)C1` [Compound 142, 2-{2-[methyl(2,2,6,6-tetramethylpiperidin-4-yl)amino][1,3]thiazolo[5,4-d]pyrimidin-5-yl}-5-(1H-pyrazol-4-yl)phenol], 100 to 500 nM.
To `Cn1cc2cc(-c3cc(C#N)c4nc(C5=CCNCC5)sc4c3)cc(C#N)c2n1` [Compound 172, 6-(7-cyano-2-methyl-2H-indazol-5-yl)-2-(1,2,3,6-tetrahydropyridin-4-yl)-1,3-benzothiazole-4-carbonitrile] belongs 1000 to 3000 nM.
For `Cc1cn2cc(-c3cc4sc(N(C)[C@@H]5C[C@H]6CC[C@@H](C5)N6C)nc4cn3)cc(F)c2n1` [Compound 239, 6-(8-fluoro-2-methylimidazo[1,2-a]pyridin-6-yl)-N-methyl-N-[(3-exo)-8-methyl-8-azabicyclo[3.2.1]oct-3-yl][1,3]thiazolo[4,5-c]pyridin-2-amine] the value was 100 to 500 nM; for `Cc1cn2cc(-c3cc(F)c4nc(C5CCNCC5)sc4c3)cc(F)c2n1` [Compound 152, 4-fluoro-6-(8-fluoro-2-methylimidazo[1,2-a]pyridin-6-yl)-2-(piperidin-4-yl)-1,3-benzothiazole], at most 100 nM; for `Cc1cn2cc(-c3ccc4nc(N(C)C5CC(C)(C)NC(C)(C)C5)sc4c3)ccc2n1` [Compound 63, N-methyl-6-(2-methylimidazo[1,2-a]pyridin-6-yl)-N-(2,2,6,6-tetramethylpiperidin-4-yl)-1,3-benzothiazol-2-amine], 100 to 500 nM.
Compound `Cc1cn2cc(-c3ccc4nc(C5CCNCC5)sc4c3)ccc2n1` [Compound 82, 6-(2-methylimidazo[1,2-a]pyridin-6-yl)-2-(piperidin-4-yl)-1,3-benzothiazole] showed an IC50 of 100 to 500 nM.
In turn, `Cc1cn2cc(-c3ncc4nc(N(C)C5CC6(C)CCC(C)(C5)N6)sc4n3)cc(F)c2n1` [Compound 284, N-[(1R,3s,5S)-1,5-dimethyl-8-azabicyclo[3.2.1]octan-3-yl]-5-(8-fluoro-2-methylimidazo[1,2-a]pyridin-6-yl)-N-methyl[1,3]thiazolo[5,4-d]pyrimidin-2-amine] displayed a half-maximal inhibitory concentration (IC50) of at most 100 nM.
For `CN1CCC(Nc2nc3nnc(-c4ccc(-c5cn[nH]c5)cc4O)cc3s2)C1` (stereo not drawn) [Compound 373, 2-{6-[(1-methylpyrrolidin-3-yl)amino][1,3]thiazolo[4,5-c]pyridazin-3-yl}-5-(1H-pyrazol-4-yl)phenol] the value was at most 100 nM; for `Oc1cc(-c2cn[nH]c2)ccc1-c1nc2cnc(C3=CCNCC3)cc2s1` [Compound 335, 5-(1H-pyrazol-4-yl)-2-[6-(1,2,3,6-tetrahydropyridin-4-yl)[1,3]thiazolo[4,5-c]pyridin-2-yl]phenol], 1000 to 3000 nM; for `Cc1cn2cc(-c3cc4sc(N(C)C5CC6(C)CCC(C)(C5)N6)nc4cn3)cc(F)c2n1` [Compound 286, N-[(1R,3s,5S)-1,5-dimethyl-8-azabicyclo[3.2.1]octan-3-yl]-6-(8-fluoro-2-methylimidazo[1,2-a]pyridin-6-yl)-N-methyl[1,3]thiazolo[4,5-c]pyridin-2-amine], at most 100 nM.
In the case of `CN(c1nc2ncc(-c3ccc4nn(C)cc4c3)cc2s1)C1CCNCC1` [Compound 12, N-methyl-6-(2-methyl-2H-indazol-5-yl)-N-(piperidin-4-yl)[1,3]thiazolo[4,5-b]pyridine-2-amine], the IC50 fell in the range of 1000 to 3000 nM.
To `Cc1cn2nc(-c3cc(F)c4nc(OC5CCN(C)CC5)sc4c3)cc(C)c2n1` [Compound 320, 6-{4-fluoro-2-[(1-methylpiperidin-4-yl)oxy]-1,3-benzothiazol-6-yl}-2,8-dimethylimidazo[1,2-b]pyridazine] belongs at most 100 nM; to `Cn1cc2cc(-c3cc(F)c4nc(C5CCNCC5)sc4c3)ccc2n1` [Compound 73, 4-fluoro-6-(2-methyl-2H-indazol-5-yl)-2-(piperidin-4-yl)-1,3-benzothiazole], at most 100 nM.
For the compound `CCN1CCC(c2nc3c(F)cc(-c4ccc5nc(C)cn5n4)cc3s2)CC1` [Compound 106, 6-[2-(1-ethylpiperidin-4-yl)-4-fluoro-1,3-benzothiazol-6-yl]-2-methylimidazo[1,2-b]pyridazine], the IC50 was at most 100 nM.
Turning to `CN(c1nc2cnc(-c3cc(F)c4nn(C)cc4c3)cc2s1)C1CC2(C)CCC(C)(C1)N2` [Compound 298, N-[(1R,3s,5S)-1,5-dimethyl-8-azabicyclo[3.2.1]octan-3-yl]-6-(7-fIuoro-2-methyl-2H-indazol-5-yl)-N-methyl[1,3]thiazolo[4,5-c]pyridin-2-amine], the IC50 was at most 100 nM.
`CN1C(C)(C)CC(Nc2nc3cnc(-c4cc(C#N)c5nn(C)cc5c4)cc3s2)CC1(C)C` [Compound 268, 2-methyl-5-{2-[(1,2,2,6,6-pentamethylpiperidin-4-yl)amino][1,3]thiazolo[4,5-c]pyridin-6-yl}-2H-indazole-7-carbonitrile] yielded an IC50 of 100 to 500 nM.
For `Cc1nc2ccc(-c3cc4sc(N(C)C5CC(C)(C)NC(C)(C)C5)nc4cn3)cn2n1` [Compound 136, N-methyl-6-(2-methyl[1,2,4]triazolo[1,5-a]pyridin-6-yl)-N-(2,2,6,6-tetramethylpiperidin-4-yl)[1,3]thiazolo[4,5-c]pyridin-2-amine], the IC50 is 100 to 500 nM.
For `Cn1cc2cc(-c3cc(F)c4nc(OC5CCNCC5)sc4c3)cc(C#N)c2n1` [Compound 318, 5-{4-fluoro-2-[(piperidin-4-yl)oxy]-1,3-benzothiazol-6-yl}-2-methyl-2H-indazole-7-carbonitrile] the value was at most 100 nM.

The values are drawn from US12139499B2, “Heteroaryl compounds for treating Huntington's disease” (PTC THERAPEUTICS, INC., priority 2018, dated 2024).
